The source of these data is patent US20030224525A1, “Enhanced photophysics of conjugated polymers” (The University of Chicago, priority 2002, published 2003).

Structures are written as SMILES.

A short description of this data set: Particle size by dynamic light scattering. It is filed as physicochemical. The following applies: in solution; complex 1:1 mole ratio, filtered with 100 nanometer filter. The protocol:
More striking results come from fluorescence microscopy of the polymer-surfactant complex (1:1 mole ratio). After filtration with a 100 nanometer filter, the 5×10^−5 M complex solution is perfectly clear and suitable for spectroscopic studies. However, when spread on a glass substrate (microscope slide) with a cover glass, incubated for 10 minutes at room temperature and observed under a 100×oil immerse objective, the polymer-surfactant complex consists of bright, uniform and well-defined nano-sized particles (FIG. 2A). […] The particle size was measured using dynamic light scattering methods. […] As a comparison, the measured particle size in pure MPS-PPV solution is about 9 nm with a broad gaussian distribution; while pure DOTAP solution contains particles ( presumably lipid bilayer assemblies) with a mean diameter of 57 nm, consistent with the literature value. The sizes of the polymer and complex particles are consistent with the results from fluorescence correlation spectroscopic experiments.
Since the spectra in FIG. 1 indicated the possibility of a second complex component in the polymer-surfactant mixture, the solution emission was examined using a shorter excitation wavelength (400 nm). As shown in FIG. 3 (inset A), the solution does container a very low concentration of species emitting at 465 nm. […]

For the molecule `CCCCCCCC/C=C\CCCCCCCC(=O)OCC(C[N+](C)(C)C)OC(=O)CCCCCCC/C=C\CCCCCCCC.[Cl-]` (stereo not shown) [DOTAP, N-[1-(2,3-Dioleoyloxy)propyl]-N,N,N,-trimethylammonium chloride], the average particle size was found to be 57 nm.
